From patent US6083982A, “Natriuretic compounds” (Loma Linda University Medical, priority 1998, dated 2000)
Several values for one entry are separate records, joined by “and”; a condition that tells them apart may be missing. Identical values can stand only once. Entries after “also recorded” stand apart in the source; their conditions may differ. Each block holds one molecule with its values, some of them ahead of it.

Assays:
[1] = literature statement; cited from earlier work
[2] = system: conscious rats; experiment: In vivo bioassay for natriuresis, kaliuresis, diuresis and mean arterial pressure in conscious rats; design: species or system female Sprague-Dawley rats; conditions: for Natriuretic Response (R): Rn = SR/FR, >0.67 active
Experimental: Female Sprague-Dawley (Harlan) rats (200-250 g) were cannulated in the femoral artery and vein for monitoring of mean arterial pressure (MAP) and infusion of saline and samples, respectively. The bladder was catheterized for collection of urine in ten-minute periods. Furosemide (0.4 mg/kg bwt; 1 mg/mL in 0.17% saline) was infused as a positive control at the beginning of the sixth ten-minute period. The sample was infused at the beginning of the seventeenth ten-minute period. Urine was collected for another 150 minutes. The volume of the urine was determined gravimetrically and the Na^+ and K^+ concentrations determined with a Beckman E2A electrolyte analyzer.
The natriuretic response of a sample was normalized to the dose of furosemide infused. The net sodium excretion for the infusion of furosemide or sample was calculated as follows. The median sodium excretion value (μmoles Na^+ /10 minute period) for the five periods before infusion of furosemide or sample was used to establish a baseline value for the calculation of ΔUNaV(=μmoles Na^+ period-baseline μmoles Na^+) for administration of either furosemide or sample respectively. The sum of ΔUNaV for the four periods following infusion of furosemide was the net sodium excreted for furosemide, defined as FR. The sum of ΔUNaV for the fifteen periods following infusion of the sample was the net sodium excreted for the sample defined as SR. The natriuretic ratio Rn (or normalized natriuretic response) of a sample was calculated by dividing SR by FR(Rn =SR/FR).

[3] = target: Na^+ /K^+ -ATPase (Bos taurus, UniProt Q08DA1); experiment: Na+/K+-ATPase (sodium pump) inhibition assay, 86Rb+ uptake in MDBK cells; format: cell-based, bovine (Madin-Darby bovine kidney cells); conditions: 0.2-200 ng/well
Experimental: The assay in MDBK cells has been described previously (see Benaksas et al., above). The assay is described briefly here. Madin-Darby bovine kidney (MDBK) cells (ATCC:CCL22) were maintained in Dulbecco's Modified Eagle's Medium (DMEM) with 5% Fetal Bovine Serum and 5% Bovine Calf Serum in a 5% CO2 /95% humidified air atmosphere at 37° C. and split (1:2) once per week.
One day before the assay, cells were plated in a 96-well plate at a density of 5×10^5 cells/well in DMEM with serum. On the day of the assay the medium was removed and the cells washed with phosphate buffered saline (PBS) before addition of 100 μL of assay media (122 mM NaCl, 1.8 mM CaCl2, 0.8 mM MgSO4, 24 mM NaHCO3, 1 mM sodium pyruvate, 25 mM glucose, 14 mM glycylglycine, 0.2% phenol red, 8 mM Na2 HPO4 1.15 mM KH2 PO4, pH 8.0) and 100 μl of sample. The plate was preincubated for 30 minutes at 37° C., then chilled on ice for 10 minutes. To each well was added 0.15 μCi ^86 RbCl (Amersham) in 10 μL of assay media. The plate was then incubated at 37° C. for 10 minutes. A portion (100 μL) of the supernatant was counted with 0.5 mL of scintillation cocktail in a liquid scintillation counter. As a control for Na^+ /K^+ -ATPase inhibition, a dose response curve for ouabain in the range of 10^-5 -10^-8 M was obtained. Intra-experiment coefficient of variation for ouabain was 3-15%. […]

[4] = Chemical stability (physical properties); format: physicochemical
[5] = Free radical scavenging

SMILES: C[C@H]1O[C@@H](O[C@H]2[C@@H](O)C[C@H](O[C@H]3[C@@H](O)C[C@H](O[C@H]4CC[C@@]5(C)[C@H](CC[C@@H]6[C@@H]5C[C@@H](O)[C@]5(C)[C@@H](C7=CC(=O)OC7)CC[C@]65O)C4)O[C@@H]3C)O[C@@H]2C)C[C@H](O)[C@@H]1O [digoxin]
- natriuretic activity [1]: not, however, natriuretic

SMILES: C[C@@H]1O[C@@H](O[C@H]2C[C@@H](O)[C@]3(CO)[C@H]4[C@H](O)C[C@]5(C)[C@@H](C6=CC(=O)OC6)CC[C@]5(O)[C@@H]4CC[C@]3(O)C2)[C@H](O)[C@H](O)[C@H]1O [Ouabain]
- natriuretic activity [1]: not, however, natriuretic

- Na^+ /K^+ -ATPase inhibition [3]: no inhibition
- stability in CDCl3 ([4]; CDCl3): Unstable
SMILES: Cc1c(O)cc2c(c1C)OC(C)(CCC(=O)O)CC2 (stereo not drawn) [LLU-α, 6-hydroxy-2,7,8-trimethylchroman-2-propanoic acid]
- natriuretic activity ([2]; 8 μg/kg, further purified on acetic acid/acetonitrile RP-HPLC (seventh step)): active
- natriuretic dose-response curve ([2]; Table III): narrow and biphasic
- natriuretic activity of isolates ([2]; crude isolates from second RP-HPLC step): natriuretically active
- sodium excretion in urine relative to potassium excretion ([2]; in mammals): increasing sodium excretion in the urine in mammals without a corresponding increase in potassium excretion
- kaliuresis (potassium excretion) on infusion ([2]; infused into conscious rats): no detectable kaliuresis
- natriuresis on infusion ([2]; infused into the rat (FIGS. 3A and B)): sustained natriuresis
- effect on blood pressure ([2]; infused into the rat, data not shown): no effect on blood pressure
- change in mean arterial pressure ([2]; on infusion, conscious rats): does not cause a significant change in mean arterial pressure; also recorded: Neither LLU-α nor -γ caused a significant change in mean arterial pressure
- natriuretic activity at lower or higher doses ([2]; partially purified (sixth purification step), doses below or above 4-8 μg/kg): no activity
- natriuretically active dose range ([2]; partially purified, silica gel HPLC (sixth purification step)): 4 to 8 µg/kg
- Natriuretic Response (R) ([2]; silica gel HPLC fraction 17, dose 0.2 μg): -0.14
- Natriuretic Response (R) ([2]; silica gel HPLC fraction 17, dose 1 μg): 0.27
- Natriuretic Response (R) ([2]; silica gel HPLC fraction 17, dose 2 μg): 1.14 and 0.75
- Natriuretic Response (R) ([2]; silica gel HPLC fraction 17, dose 10 μg): 0.26
- Natriuretic Response (R) ([2]; silica gel HPLC fraction 18, dose 56.4 μg): 0.23
- Natriuretic Response (R) ([2]; silica gel HPLC fraction 18, dose 224 μg): 0.02
- Natriuretic Response (R) ([2]; silica gel HPLC fraction 19, dose 0.2 μg): 0.24
- Natriuretic Response (R) ([2]; silica gel HPLC fraction 19, dose 1 μg): 0.93
- Natriuretic Response (R) ([2]; silica gel HPLC fraction 19, dose 10 μg): 0.09
- stability in dilute base ([4]; dilute base): instability in dilute base; also recorded: Unstable
- free radical scavenging [5]: cardio-selective free radical scavenger
